Measurements reported in patent publication US4550186A, “Binuclear copper (II) carboxylates formed from amine-carboxyboranes” (Duke University, priority 1983, dated 1985).

Assays:
[1] = system: Cholesterol Side Chain Oxidation; assay: In vitro liver enzyme study: cholesterol side chain oxidation; format: biochemical, mouse
Experimental: In vitro enzymatic studies were determined using 10% homogenates of CF1 male mouse liver with 50-200 μM of test drugs. In vivo enzymatic studies were determined using 10% homogenates of liver from CF1 male mice obtained after administering the agents for 16 days at a dose ranging from 2.5-20 mg/kg/day intraperitoneally. The liver homogenates for both in vitro and in vivo studies were prepared in 0.25M sucrose and 0.001M (ethylenedinitrilo)tetraacetic acid. Acetyl coenzyme A synthetase and adenosine triphosphate dependent citrate lyase activities were determined spectrophotometrically at 540 nm as the hydroxylamate of acetyl coenzyme A formed after 30 min at 37° C. Mitochondrial citrate exchange was determined by the procedure of Robinson et al [Eur. J. Biochem., 216, 63 (1970)] using ^14 C-sodium bicarbonate (41 mCi/mmol) incorporated into mitochondrial ^14 C-citrate after isolating rat mitochondria (9000 g×10 min) from the homogenates. The exchanges of the ^14 C-citrate were determined after incubating the mitochondrial fraction which was loaded with labeled citrate and test drugs for 10 min. Then the radioactivity was measured in the mitochondrial and supernantant fractions in scintillation fluid and expressed as a percentage. […] Acyl transferase activity was determined with glycerol-3phosphate [L-2-^3 H(N)] […] HCl and counted. […]

[2] = target: T1, dihydrofolate reductase (Mus musculus, UniProt P00375); assay: In vivo dihydrofolate reductase activity
T1 sequence (P00375 1-187): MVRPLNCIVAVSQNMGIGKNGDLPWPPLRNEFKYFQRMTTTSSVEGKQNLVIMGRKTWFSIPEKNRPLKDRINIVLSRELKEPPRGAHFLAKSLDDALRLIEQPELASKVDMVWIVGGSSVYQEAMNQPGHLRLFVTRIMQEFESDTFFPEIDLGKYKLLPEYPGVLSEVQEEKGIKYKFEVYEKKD
Experimental: (§1) CF1 male mice (~30 g) were implanted with 2×10^6 Ehrlich ascites tumor cells, intraperitoneally on Day 0. Compound I was suspended by homogenation in 0.05% polysorbate.80-water and administered intraperitoneally at 10 and 20 mg/kg for 9 days to determine its effectiveness for inhibition of tumor growth. Mice were sacrificed on Day 10, and the ascites fluid was collected from the peritoneal cavity. The volume and ascrit (packed cell volume) were determined for each animal and the percent inhibition of tumor growth was calculated. For the metabolic studies, mice were treated on Days 8 and 9 with 10 mg/kg of Compound I, intraperitoneally. […]
(§2) Carbamyl phosphate synthetase activity was determined using the reaction medium of Kalman et al [Am. […] Citrulline formed from ornithine was measured at 490 nm by the method of Archibald [J. Biol. Chem., 156, 121 (1944)]. […] The ^14 CO2 generated in 15 min was trapped in 1M KOH and counted. Thymidylate synthetase activity was determined using a post-mitochondrial supernatant (9000 g×10 min) and 5 μCi of 5-^3 H-deoxyuridine monophosphate (14 Ci/mmol) according to the method of Kampf et al [ J. Med. Chem., 19, 903 (1976)]. ^14 C-Formate incorporation into purines was determined by the method of Spassova et al [Biochem. Pharmacol., 25, 923 (1976)] using 0.5 μCi of ^14 C-formic acid (52.0 mCi/mmol). […] The Rf value for xanthine monophosphate was scraped and counted. […]

[3] = target: T2, aspartate carbamyl transferase (Mus musculus, UniProt B2RQC6); assay: In vitro aspartate carbamyl transferase activity; format: biochemical; conditions: 0.25 to 1.0 mM
T2 construct: ATCase domain of CAD
T2 sequence (B2RQC6 2-2225): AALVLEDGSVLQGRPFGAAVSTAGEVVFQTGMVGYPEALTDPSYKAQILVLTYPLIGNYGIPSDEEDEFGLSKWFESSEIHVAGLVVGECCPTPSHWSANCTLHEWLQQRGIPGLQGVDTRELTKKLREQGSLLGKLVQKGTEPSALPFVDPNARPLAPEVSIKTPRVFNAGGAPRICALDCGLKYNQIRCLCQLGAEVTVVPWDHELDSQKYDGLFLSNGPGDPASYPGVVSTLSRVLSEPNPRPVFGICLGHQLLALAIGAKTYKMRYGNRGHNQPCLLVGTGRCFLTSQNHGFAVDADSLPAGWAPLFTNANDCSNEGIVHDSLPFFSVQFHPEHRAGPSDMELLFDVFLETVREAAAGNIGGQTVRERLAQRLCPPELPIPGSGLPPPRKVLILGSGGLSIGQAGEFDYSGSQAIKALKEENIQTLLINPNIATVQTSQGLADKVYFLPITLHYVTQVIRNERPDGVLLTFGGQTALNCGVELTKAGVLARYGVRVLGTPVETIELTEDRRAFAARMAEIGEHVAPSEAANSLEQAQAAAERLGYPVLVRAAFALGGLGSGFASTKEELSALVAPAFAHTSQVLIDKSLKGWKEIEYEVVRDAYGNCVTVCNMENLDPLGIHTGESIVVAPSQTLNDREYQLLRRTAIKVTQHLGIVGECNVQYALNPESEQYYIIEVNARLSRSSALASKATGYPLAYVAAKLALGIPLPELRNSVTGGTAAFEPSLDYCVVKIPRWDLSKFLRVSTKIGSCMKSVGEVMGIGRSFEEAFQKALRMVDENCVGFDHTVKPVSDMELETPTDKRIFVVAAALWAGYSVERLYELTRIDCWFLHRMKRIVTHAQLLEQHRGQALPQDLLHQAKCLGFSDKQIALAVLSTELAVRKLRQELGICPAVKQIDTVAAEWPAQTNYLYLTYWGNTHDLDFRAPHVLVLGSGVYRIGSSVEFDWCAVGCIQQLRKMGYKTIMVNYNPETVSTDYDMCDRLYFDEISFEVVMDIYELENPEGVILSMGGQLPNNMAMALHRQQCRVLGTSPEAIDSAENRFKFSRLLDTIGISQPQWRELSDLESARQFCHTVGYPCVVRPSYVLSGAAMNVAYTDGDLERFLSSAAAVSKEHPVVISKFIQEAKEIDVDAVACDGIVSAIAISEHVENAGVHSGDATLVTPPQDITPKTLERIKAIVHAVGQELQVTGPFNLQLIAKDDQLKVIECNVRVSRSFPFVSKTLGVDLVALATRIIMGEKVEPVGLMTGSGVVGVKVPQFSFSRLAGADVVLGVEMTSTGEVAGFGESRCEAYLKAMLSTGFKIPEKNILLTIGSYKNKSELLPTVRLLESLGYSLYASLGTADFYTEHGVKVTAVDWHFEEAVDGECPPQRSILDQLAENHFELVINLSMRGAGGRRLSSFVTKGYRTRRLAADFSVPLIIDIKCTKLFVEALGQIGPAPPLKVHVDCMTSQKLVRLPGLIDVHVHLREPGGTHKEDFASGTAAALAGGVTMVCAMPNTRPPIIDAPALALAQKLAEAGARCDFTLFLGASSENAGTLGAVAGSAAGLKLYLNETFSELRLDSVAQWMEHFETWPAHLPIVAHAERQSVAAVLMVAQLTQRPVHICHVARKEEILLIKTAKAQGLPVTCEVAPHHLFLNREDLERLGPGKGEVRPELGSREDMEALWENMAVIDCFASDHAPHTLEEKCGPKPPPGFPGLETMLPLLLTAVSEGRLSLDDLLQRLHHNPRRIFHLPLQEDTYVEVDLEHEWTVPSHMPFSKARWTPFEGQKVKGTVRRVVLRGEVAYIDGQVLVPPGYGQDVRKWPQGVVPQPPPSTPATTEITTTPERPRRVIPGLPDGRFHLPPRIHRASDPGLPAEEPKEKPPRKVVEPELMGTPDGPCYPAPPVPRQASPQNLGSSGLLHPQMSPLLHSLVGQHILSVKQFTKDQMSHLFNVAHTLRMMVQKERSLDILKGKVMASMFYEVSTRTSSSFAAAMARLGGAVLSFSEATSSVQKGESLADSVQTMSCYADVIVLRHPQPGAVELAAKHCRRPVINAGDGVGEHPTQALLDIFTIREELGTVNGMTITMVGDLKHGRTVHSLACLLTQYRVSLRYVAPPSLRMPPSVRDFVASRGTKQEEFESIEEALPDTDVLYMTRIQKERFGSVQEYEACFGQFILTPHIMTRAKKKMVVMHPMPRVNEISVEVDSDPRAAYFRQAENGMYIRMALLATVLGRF
Experimental: as §1, §2

{Cu[(CH3)3 N.BH2 CO2 ]2.(CH3)3 N.BH2 COOH} [Compound I]
Cholesterol Side Chain Oxidation ([1]; in vitro CF1 liver, 100 μM): 152 ± 7 Percent Control | degradation of cholesterol by oxidation of the side chain accelerated ([1]; in vitro, in the presence of drug): 52% | Dihydrofolate reductase activity inhibited [2]: 25% | Dihydrofolate reductase activity ([2]; 10 mg/kg/day I.P. on Days 8 and 9): 75 ± 6 % Control | aspartate carbamyl transferase inhibition [3]: not inhibited
